# According to patent US20110224245A1, “Treatment Of Neurological Disorders Using Huperzine” (President and Fellows of Harvard College, priority 2008, published 2011):
# Entries after “also recorded” stand apart in the source; their conditions may differ.
# What was measured:
# patients = conditions: published clinical studies; mainly cholinergic (dizziness, nausea, gastrointestinal symptoms, sweating, depressed heart rate); cited from earlier work
# 6 Hz seizures [1] = test: 6 Hz seizure test, mice i.p.; type: in vivo; conditions: for Time to Peak Effect N/F: 6 HZ, 0.83 mg/kg
# Experimental: HupA was also evaluated for its ability to modify tonic extension, minimal clonic, limbic seizures in the maximal electroshock seizure (MES), subcutaneous pentylenetetrazol (sc PTZ), and 6 Hz seizure tests following intraperitoneal administration. These three tests are highly predictive of efficacy against human generalized tonic-clonic (MES), generalized myoclonic (sc PTZ), and refractory limbic (6 Hz) seizures, respectively. In addition, it was tested for its ability to prevent the expression of Stage V seizures in the hippocampal kindled rat model of partial epilepsy.
# (§1) Male, 18-25 g CF1 mice and 100-125 g Sprague-Dawley rats (Charles River Laboratories, Wilmington, Mass.) were used as the experimental animals. Animals were pretreated intraperitoneally (i.p.) with increasing doses of HupA and tested at various times after administration for protection against tonic extension (MES test), minimal clonic (s.c. PTZ test), limbic (6 Hz), or secondarily generalized (kindled rat) seizures. Seizure testing was carried out as follows. For the MES and 6 Hz tests, a drop of anesthetic/electrolyte solution (0.5% tetracaine hydrochloride in 0.9% saline) was applied to the eyes of each animal prior to placement of the corneal electrodes. The electrical stimulus in the MES test was 50 mA, 60 Hz, for mice and 150 mA, 60 Hz, for rats, delivered for 0.2 sec (White et al., 2002, In R. H. Levy et al., eds. Antiepileptic Drugs, 5th edition, p. 36-48, Philadelphia: Lippincott Williams & Wilkins). The ability of the test substance to prevent seizures induced by 6 Hz corneal stimulation (32 mA, 3 sec duration) was assessed at various times after i.p. administration of 1 mg/kg HupA For assessment of hippocampal kindling, HupA (1 mg/kg, i.p.) was administered. The ability of the compound to block the expression of hippocampal kindled seizures was evaluated using the rapid hippocampal kindling model (White et al., 2002). Animals not displaying secondarily generalize seizures were considered protected.
# mice = test: Toxicity Model (TOX), rotorod / minimal motor impairment, mice i.p.; type: in vivo; conditions: for Comment (6 Hz test, 22 mA) / Comment (6 Hz test, 32 mA): 1 h
# Text: To investigate the neurotoxicity levels of the huperzine compounds, the Toxicity Model (TOX) using a rotorod is employed. The animals (e.g., mice) were trained to stand on an accelerating rotorod rotating at 10 rev min^−1 with a diameter of 3.2 cm. The trained animal can be given the huperzine compound at various doses and the effect of huperzine on their motor skills can be determined. The dose at which the animals fell off the rotorod is the toxic dose.
# The neurotoxicity of huperzine was tested in the rotorod test. The mice were trained to stand on an accelerating rotorod rotating at 10 rev min^−1 with a diameter of 3.2 cm. The trained animals were given the huperzine at various doses and the effect of huperzine on their motor skills was determined. The dose at which the animals fell off the rotorod was the toxic dose.
# Huperzine A was either administered in a soluble form (SOL) or as a suspension (SUS). […] To produce the suspension, huperzine A was ground to a powder using a mortar and pestle, and the powder mixed with methyl cellulose. This mixture was then sonicated to produce a suspension that was subsequently administered to mice in the weight range of 19.0 to 25.5 g. The data are presented as the number of mice showing an effect (N) from the full number of mice (F) tested. […] At four hours post administration, all three mice were protected (i.e., 100% were protected). […]
# Minimal toxicity was identified in mice by the rotorod procedure.
# 6 Hz seizures [2] = test: 6 Hz anticonvulsant evaluation in mice, ICV administration; type: in vivo
# Text: Huperzine delivered directly to the central nervous system (e.g., cerebral ventricles, intrathecal space), via direct injection and/or through an apparatus such as a pump or material containing Huperzine, bypasses the systemic effect by minimizing bioavailability of Huperzine in the rest of the body, and potently prevents and treats seizure, pain and/or other neurological conditions.
# Results after direct administration to neural tissue using an art-recognized 6-HZ animal model are shown below.
# Doses listed as pmol/5 microliter injection volume for ICV. TD50 at 0.5 hrs: 36.15 (9.35-121.74) 1.57+/−0.51.
# as §1
# [3] = test system: Subcutaneous Metrazol (pentylenetetrazol; SCMET) seizures; test: Subcutaneous Metrazol (SCMET / scPTZ) model, mice i.p.; type: in vivo; conditions: (MJ) animals displaying myoclonic jerks
# Experimental: Huperzine A was evaluated in the Maximal Electroshock (MES) and Subcutaneous Metrazol (pentylenetetrazol; SCMET) models of generalized tonic-clonic and myoclonic seizures, respectively in mice and rats.
# The Subcutaneous Metrazole (SCMET) model is also an art-recognized test for therapeutic agents for epilepsy, and in particular, is useful for investigating petite mal seizures. A Metrazole dose of 85 mg/kg was administered subcutaneously to induce seizures. Huperzine was then administered and the animals observed.
# (§2) Huperzine A was either administered in a soluble form (SOL) or as a suspension (SUS). […] To produce the suspension, huperzine A was ground to a powder using a mortar and pestle, and the powder mixed with methyl cellulose. This mixture was then sonicated to produce a suspension that was subsequently administered to mice in the weight range of 19.0 to 25.5 g. The data are presented as the number of mice showing an effect (N) from the full number of mice (F) tested. […] At four hours post administration, all three mice were protected (i.e., 100% were protected).
# Male, 18-25 g CF1 mice and 100-125 g Sprague-Dawley rats (Charles River Laboratories, Wilmington, Mass.) were used as the experimental animals. Animals were pretreated intraperitoneally (i.p.) with increasing doses of HupA and tested at various times after administration for protection against tonic extension (MES test), minimal clonic (s.c. PTZ test), limbic (6 Hz), or secondarily generalized (kindled rat) seizures. Seizure testing was carried out as follows. […] The ability of the test substance to prevent seizures induced by 6 Hz corneal stimulation (32 mA, 3 sec duration) was assessed at various times after i.p. administration of 1 mg/kg HupA For assessment of hippocampal kindling, HupA (1 mg/kg, i.p.) was administered. The ability of the compound to block the expression of hippocampal kindled seizures was evaluated using the rapid hippocampal kindling model (White et al., 2002). […]
# [4] = Solubility in methyl cellulose solvent; type: physicochemical
# Text: as §2
structure (smiles),measurement,setting,value
C/C=C1\[C@H]2C=C(C)C[C@]1(N)c1ccc(=O)[nH]c1C2 [Huperzine A],adverse effects in patients,patients,adverse effects were noted infrequently
same,protection in the mouse 6 Hz test (FIG. 1),6 Hz seizures [1]; 0.8 mg/kg,time-dependent protection
same,Time to Peak Effect N/F,6 Hz seizures [1]; 0.25 h,1/4
same,Time to Peak Effect N/F,6 Hz seizures [1]; 0.5 h,1/4
same,Time to Peak Effect N/F,6 Hz seizures [1]; 1.0 h,4/4
same,Time to Peak Effect N/F,6 Hz seizures [1]; 2.0 h,2/4
same,Time to Peak Effect N/F,6 Hz seizures [1]; 4.0 h,0/4
same,protection against 6 Hz seizures (FIG. 2),"6 Hz seizures [1]; mouse, in vivo",dose-dependent protection
same,TOX N/F (mice showing an effect / mice tested),"mice; 0.1 mg/kg i.p., SOL, 4.0 h",0/4
same,"Comment (6 Hz test, 22 mA)",mice; 0.18 mg/kg IP,Minimal motor impairment
same,"Comment (6 Hz test, 32 mA)",mice; 0.2 mg/kg IP,Tremors
same,"Comment (6 Hz test, 32 mA)",mice; 0.3 mg/kg IP,Tremors; also recorded: Minimal motor impairment
same,TOX N/F (mice showing an effect / mice tested),"mice; 0.3 mg/kg i.p., SOL, 4.0 h",0/4
same,"Comment (6 Hz test, 22 mA)",mice; 0.35 mg/kg IP,Minimal motor impairment
same,"Comment (6 Hz test, 32 mA)",mice; 0.42 mg/kg IP,Tremors; also recorded: Minimal motor impairment
same,"Comment (6 Hz test, 22 mA)",mice; 0.7 mg/kg IP,Tremors; also recorded: Minimal motor impairment
same,"Comment (6 Hz test, 32 mA)",mice; 0.83 mg/kg IP,Tremors; also recorded: Minimal motor impairment
same,TOX N/F (mice showing an effect / mice tested),"mice; 1 mg/kg i.p., SOL, 0.5 h, (T) animals displaying tremors",4/4 (T)^2
same,TOX N/F (mice showing an effect / mice tested),"mice; 1 mg/kg i.p., SOL, 4.0 h, (T) animals displaying tremors",2/2 (T)
same,TOX N/F (mice showing an effect / mice tested),"mice; 3 mg/kg i.p., SUS, 0.5 h",8/8
same,TOX N/F (mice showing an effect / mice tested),"mice; 3 mg/kg i.p., SUS, 4.0 h, (T) animals displaying tremors",4/4 (T)
same,TOX N/F (mice showing an effect / mice tested),"mice; 10 mg/kg i.p., SUS, 0.5 h",4/4
same,TOX N/F (mice showing an effect / mice tested),"mice; 10 mg/kg i.p., SUS, 4.0 h, (T) animals displaying tremors",2/2 (T)
same,TOX N/F (mice showing an effect / mice tested),"mice; 30 mg/kg i.p., SUS, 0.5 h, (D) death of animals",4/4 (D)^3
same,TOX N/F (mice showing an effect / mice tested),"mice; 100 mg/kg i.p., SUS, 0.5 h, (D) death of animals",8/8 (D)
same,TOX N/F (mice showing an effect / mice tested),"mice; 300 mg/kg i.p., SUS, 0.5 h, (D) death of animals",4/4 (D)
same,behavioral impairment at anticonvulsant doses,mice; mice,marked motor impairment
same,ED50,"6 Hz seizures [2]; 6 HZ, ICV, 32 mA, 0.5 h",0.21 pmol/5 microliter injection volume
same,N/F (animals active over number tested),"6 Hz seizures [2]; ICV, 32 mA, 0.5 h, dose 0.01 (pmol/5 microliter; head prints mg/kg)",3/8
same,N/F (animals active over number tested),"6 Hz seizures [2]; ICV, 32 mA, 0.5 h, dose 1 (pmol/5 microliter; head prints mg/kg)",5/8
same,N/F (animals active over number tested),"6 Hz seizures [2]; ICV, 32 mA, 0.5 h, dose 10 (pmol/5 microliter; head prints mg/kg)",6/8
same,N/F (animals active over number tested),"6 Hz seizures [2]; ICV, 32 mA, 0.5 h, dose 100 (pmol/5 microliter; head prints mg/kg)",8/8
same,N/F (animals active over number tested),"6 Hz seizures [2]; ICV, 32 mA, 0.5 h, dose 1000 (pmol/5 microliter; head prints mg/kg)",4/4
same,Time to Peak Effect N/F,"6 Hz seizures [2]; ICV, 32 mA, dose 10 (pmol/5 microliter), 0.25 h",2/4
same,Time to Peak Effect N/F,"6 Hz seizures [2]; ICV, 32 mA, dose 10 (pmol/5 microliter), 0.5 h",3/4
same,Time to Peak Effect N/F,"6 Hz seizures [2]; ICV, 32 mA, dose 100 (pmol/5 microliter), 0.25 h",4/4
same,Time to Peak Effect N/F,"6 Hz seizures [2]; ICV, 32 mA, dose 100 (pmol/5 microliter), 0.5 h",3/4
same,Time to Peak Effect N/F,"6 Hz seizures [2]; ICV, 32 mA, dose 100 (pmol/5 microliter), 1.0 h",1/4
same,ICV ED50 dose,"6 Hz seizures [2]; mouse 6-hz model, ICV",52 pgrams
same,maximum concentration in the cerebral ventricles after the ICV ED50 dose,"6 Hz seizures [2]; mouse 6-hz model, ICV ED50 dose, 40 μL",approximately 1.3 pgram/μL
same,SCMET N/F (mice showing an effect / mice tested),"[3]; 1 mg/kg i.p., SOL, 0.5 h",3/5 (MJ)^1
same,SCMET N/F (mice showing an effect / mice tested),"[3]; 3 mg/kg i.p., SUS, 0.5 h",1/1 (MJ)
same,SCMET N/F (mice showing an effect / mice tested),"[3]; 10 mg/kg i.p., SUS, 4.0 h",1/1 (MJ)
same,solubility in the methyl cellulose solvent,[4]; at concentrations of 0.1-0.3 mg/kg,readily soluble
same,solubility in the methyl cellulose solvent,[4]; at higher concentrations (administered as suspension),not soluble
